The record followed here is patent US9216169B2, “Pharmaceutical composition comprising candesartan or ester thereof and chlortalidone, and use thereof” (TIANJIN INSTITUTE OF PHARMACEUTICAL RESEARCH, priority 2011, dated 2015).

The experiment relates to Spontaneously hypertensive rats (SHR). In words: SBP of SHR by Tail-Cuff method, first administration and continuous administration for 14 days (Examples 8-12). Format: in vivo, rat. The note with it: for AUC0-24h: after first administration. On the procedure: Spontaneously hypertensive rats (SHR), male, are provided by Beijing Vital River Laboratory Animal Technology Co., Ltd. The number of animal production license is SCXK (Jing) 2007-0001. Animals are raised in an observation room at the room temperature of 25±2° C. controlled by central air-conditioning system and with artificial lighting of 12 h/day. The animals are raised in separate cages sized 43×27×18 cm with 4 animals for each cage. The rats are free access to water and are fed with block fodder everyday, and the water supply is refreshed once a day. The temperature of the room for measuring the blood pressure is 26±2° C.
The blood pressure is measured by Tail-Cuff method and the hear rate is measured according to the pulse frequency. Animals are pre-trained for the blood pressure measurement for more than 2 weeks so as to adapt to the environment of measurement. Animals are placed in a isothermal bag at 37° C. to be prewarmed for 5 to 10 min for formal measurement. Blood pressures of the rats are measured from tail arteries for 2 to 3 times at rest states, and an average value is taken as each blood pressure measured value. All data are collected and preserved by a computer.
SHRs with systolic blood pressures (SBPs)>190 mmHg are selected for experiment.
Rats are randomly divided into 20 groups according to their blood pressures with each group having 8-10 rats. Animals are fasted overnight and measured for the blood pressure of pre-administration at the day of experiment, and then administered drugs in accordance with the following method:
The single-drug group is intragastrically administered candesartan (Can) or chlorthalidone (Chl), with the dosage of Can of 0.1, 0.2, 0.4 mg/kg respectively and the dosage of Chl of 0.3125, 0.625, 1.25 mg/kg respectively;
According to the clinical single-drug specification, the ratios of Can+Chl are set as follows:
For the ratio of Can:Chl=1:6.25, one dose of 0.1+0.625 mg/kg is set;
For the ratio of Can:Chl=1:3.125, two doses of 0.2+0.625 and 0.4+1.25 mg/kg are set;
For the ratio of Can:Chl=1.28:1, one dose of 0.4+0.3125 mg/kg is set;
For the ratio of Can:Chl=2.56:1, one dose of 0.4+0.15625 mg/kg is set;
The administration volumes are all 5 mL/kg. Rats are continuously administered for 14 days. SBPs are measured 2, 4, 8, 12 and 24 hours after the first administration. On the day of 3, 7, 14 days after administration, the blood pressures are measured before administration and 5 hours after administration. Areas under blood pressure reduction-time curve from 0 to 24 h and from 0 to 14 days (AUC0-24h, AUC0-14d) are calculated.
The calculated results are expressed as mean±standard error ( x±SE); statistical treatment is performed using unpaired t test between groups to compare the significance of the average difference; the interaction between drugs are determined by using factorial analysis of variance, and P<0.05 means the difference has statistical significance.

Consider `NS(=O)(=O)c1cc(C2(O)NC(=O)c3ccccc32)ccc1Cl` (stereo not drawn) [Chl, Chlorthalidone], for which the AUC0-14d reads like this: (Chl 0.3125 mg/kg i.g. for 14 days) −125.9 mmHg · d; (Chl 0.625 mg/kg i.g. for 14 days) −134.5 mmHg · d; (Chl 1.25 mg/kg i.g. for 14 days) −174.2 mmHg · d. Also, the AUC0-24h was −133.1 mmHg · h (Chl 0.3125 mg/kg i.g.), −190.4 mmHg · h (Chl 0.625 mg/kg i.g.) and −208.1 mmHg · h (Chl 1.25 mg/kg i.g.).
